Values of other authors, collected in patent US20140315941A1, “METHOD OF REDUCING CNS AND GASTRO[…] AFFECTS ASSOCIATED WITH LONG-TERM, DEXTROMETHORPHAN/LOW-DOSE QUINIDINE COMBINATION THERAPY” (Avanir Pharmaceuticals, Inc., priority 2009, published 2014).

Columns and labels:
[1] = system: pain threshold in CYP2D6 extensive and poor metabolizers; settings: extensive vs poor metabolizers
[2] = some patients with Huntington's disease; DM doses eight times the maximum antitussive dose
CYP2D6 = CYP2D6 (Homo sapiens, UniProt P10635); settings: in vitro
Sequence of CYP2D6 (P10635 whole entry): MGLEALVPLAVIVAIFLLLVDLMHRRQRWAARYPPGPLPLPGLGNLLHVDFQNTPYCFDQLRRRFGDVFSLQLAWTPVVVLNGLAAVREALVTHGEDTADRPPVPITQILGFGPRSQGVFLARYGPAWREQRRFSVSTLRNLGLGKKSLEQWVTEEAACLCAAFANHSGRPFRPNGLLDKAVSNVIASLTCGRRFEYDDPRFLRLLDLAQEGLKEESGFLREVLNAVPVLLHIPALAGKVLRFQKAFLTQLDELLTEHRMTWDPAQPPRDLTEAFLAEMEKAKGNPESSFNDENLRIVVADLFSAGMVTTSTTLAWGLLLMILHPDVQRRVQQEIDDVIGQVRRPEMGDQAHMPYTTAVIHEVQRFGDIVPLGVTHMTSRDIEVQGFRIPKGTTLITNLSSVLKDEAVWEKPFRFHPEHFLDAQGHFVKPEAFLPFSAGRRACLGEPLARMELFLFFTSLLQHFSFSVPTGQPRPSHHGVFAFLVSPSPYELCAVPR

Row | Structure (SMILES) | antinociceptive effects (increase of pain threshold) [1] | plasma concentrations [2] | inhibition of CYP2D6 activity (potency, words) (CYP2D6)
1 | COc1ccc2c(c1)[C@]13CCCCC1[C@H](C2)N(C)CC3 (single isomer, unassigned; (+)) [DM, (+)-3-methoxy-N-methylmorphinan] | significant in poor metabolizers but not in extensive metabolizers | undetectable | –
2 | C=C[C@H]1C[N@@]2CC[C@H]1C[C@@H]2[C@@H](O)c1ccnc2ccc(OC)cc12 [Quinidine, quinidine] | – | – | one of the most potent
